Read-outs that look alike come from different tables or passages of the source.
Columns and labels:
gastric secretion = assay: Activity on gastric secretion "in vivo" (volume and total acidity of gastric juice after pylorus tieing, Shay); design: species or system male Wistar rats; conditions: for Total acidity gastric juice secretion / Volume gastric juice secretion / change in vivo at 20 mg/kg: 20 mg/kg oral; for change in vivo at 20 mg/kg / ED50: Rattus norvegicus, po; for ED50: per os, 1 hour before pilorus tieing, read-out: DE50 in rat calculated on total acidity (mEq/4 hours); for ability to reduce the gastric acid secretion (in words): volume and total acidity of gastric juice
Experimental: (§1) The preparations were a solution of the substances in 2.5% citric acid for the "in vitro" test and 5% citric acid for the "in vivo" test respectively. Citric acid was diluted in normal physiologic saline at neutral pH.
The ability of the compounds according to the present invention to inhibit the gastric secretion was studied "in vivo" both by evaluating the volume reduction of gastric juice, and by measuring the total acidity of same after administration of the substances under test according to the Takeda method (see the aforementioned literature).
To this end, tests have been made on male Wistar rats of an average weight of 200 g. The animals, 10 for each substance, were placed into individual cages provided with ground grating in order to avoid coprophagy, without food but with free access to water for 24 hours before test. […] Four hours later the animals were sacrificed and the gastric juice was collected, of which the volume expressed in ml and the total acidity expressed in mEq was measured. The gastric juice ([…] ) was titrated with 0.1N NaOH to pH 7 to determine the acid concentration. The total acidity was then calculated as the product of the total volume of gastric juice by the acid concentration.

histamine H2 receptors = target: T1, histamine H2 receptors (Cavia porcellus, UniProt P47747); assay: Antagonistic activity to the histamine H2 receptors "in vitro" on insulated atrium auricolas of Guinea pig heart; conditions: for inhibition at 10 µM / inhibition at 1 µM / inhibition at 0.1 µM: guinea pig, 0.5 h, read-out: Antagonizing activity to histamine H2 receptors; for inhibition at 10 µM: compound 1·10^-5 M/L; for inhibition at 1 µM: compound 1·10^-6 M/L; for inhibition at 0.1 µM: compound 1·10^-7 M/L; for antagonistic action to the histamine H2 receptors (in words): in vitro
T1 construct: tests on insulated atrium auricolas of Guinea pig heart; from tissue; host or cells: isolated guinea pig heart atrium
T1 sequence (P47747 whole entry): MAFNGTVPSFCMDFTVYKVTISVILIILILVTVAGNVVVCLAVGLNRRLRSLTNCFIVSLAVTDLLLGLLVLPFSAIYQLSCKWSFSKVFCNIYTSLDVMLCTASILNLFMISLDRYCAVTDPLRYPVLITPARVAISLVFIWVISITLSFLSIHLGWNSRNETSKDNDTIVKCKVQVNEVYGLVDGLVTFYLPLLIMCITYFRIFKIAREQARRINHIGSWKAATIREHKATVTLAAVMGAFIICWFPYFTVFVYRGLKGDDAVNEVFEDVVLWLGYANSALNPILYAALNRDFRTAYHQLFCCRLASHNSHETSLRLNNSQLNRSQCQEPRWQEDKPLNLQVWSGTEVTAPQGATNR
Experimental: as §1
This activity was evaluated "in vitro" by carrying out tests on insulated atrium auricolas of Guinea pig heart. […] Metering was carried out by placing the preparation into a vessel containing a Ringer-Locke solution wherein pure oxygen was bubbling, at a temperature of 37° C. A response of the organ "in vitro" was first established at cumulative histamine doses of 2.5.10^-7, 5.10^-7, 10^-6, 5.10^-6, 10^-5 M/L. After obtaining two constant lines with histamine at a time interval of one hour from one another, the substances under test were added to the bath and after a 30 minutes contact with the preparation, a new histamine response line in the presence of the substance under test was drawn. The activity was tested at various concentrations of the new compounds (10^-5, 10^-6, 10^-7 and in one case 10^-8 M/L).

in vivo = conditions: po; for LD50 at 360 h: mouse; for LD50: rat
Excerpt: The animals were kept under observation by checking mortality and possible pain signs for 15 days from start of test.

[1] = 6 hours before pilorus tieing, read-out: Total acidity gastric juice secretion, Variation %
[2] = 6 hours before pilorus tieing, read-out: Volume gastric juice secretion, Variation %
[3] = 12 hours before pilorus tieing, read-out: Total acidity gastric juice secretion, Variation %
[4] = 12 hours before pilorus tieing, read-out: Volume gastric juice secretion, Variation %
[5] = 24 hours before pilorus tieing, read-out: Total acidity gastric juice secretion, Variation %
[6] = 24 hours before pilorus tieing, read-out: Volume gastric juice secretion, Variation %
[7] = 36 hours before pilorus tieing, read-out: Total acidity gastric juice secretion, Variation %
[8] = 36 hours before pilorus tieing, read-out: Volume gastric juice secretion, Variation %

| SMILES | Total acidity gastric juice secretion (gastric secretion; 6 hours before pilorus tieing) | Volume gastric juice secretion (gastric secretion; 6 hours before pilorus tieing) | Total acidity gastric juice secretion (gastric secretion; 12 hours before pilorus tieing) | Volume gastric juice secretion (gastric secretion; 12 hours before pilorus tieing) | Total acidity gastric juice secretion (gastric secretion; 24 hours before pilorus tieing) | Volume gastric juice secretion (gastric secretion; 24 hours before pilorus tieing) | Total acidity gastric juice secretion (gastric secretion; 36 hours before pilorus tieing) | Volume gastric juice secretion (gastric secretion; 36 hours before pilorus tieing) | change in vivo at 20 mg/kg (gastric secretion; [1]) [%] | change in vivo at 20 mg/kg (gastric secretion; [2]) [%] | change in vivo at 20 mg/kg (gastric secretion; [3]) [%] | change in vivo at 20 mg/kg (gastric secretion; [4]) [%] | change in vivo at 20 mg/kg (gastric secretion; [5]) [%] | change in vivo at 20 mg/kg (gastric secretion; [6]) [%] | change in vivo at 20 mg/kg (gastric secretion; [7]) [%] | change in vivo at 20 mg/kg (gastric secretion; [8]) [%] | ED50 (gastric secretion) [mg/kg] | ability to reduce the gastric acid secretion (in words) (gastric secretion) | inhibition at 10 µM (histamine H2 receptors; histamine 1·10^-5 M/L) [%] | inhibition at 10 µM (histamine H2 receptors; histamine 1·10^-6 M/L) [%] | other results |
| --- | --- | --- | --- | --- | --- | --- | --- | --- | --- | --- | --- | --- | --- | --- | --- | --- | --- | --- | --- | --- | --- |
| CN(C)Cc1ccc(CSCCNC(=S)NC(=O)c2ccccc2)o1 [Example No. 1, N-benzoyl-N'-(2-(((5-(dimethylamino)methyl-2-furanyl)methyl)-thio)ethyl)-thiourea] | 0,08 mEq/4 hours | 4,1 ml/4 hours | 0,09 mEq/4 hours | 4,0 ml/4 hours | 0,13 mEq/4 hours | 5,0 ml/4 hours | 0,14 mEq/4 hours | 5,2 ml/4 hours | -53 | -23 | -40 | -21 | -23 | -11 | -12 | -7 | 3.4 | interesting ability | 100 | 100 | inhibition at 10 µM (histamine H2 receptors; histamine 2,5·10^-7 M/L): 100%; inhibition at 10 µM (histamine H2 receptors; histamine 5·10^-6 M/L): 100%; inhibition at 10 µM (histamine H2 receptors; histamine 5·10^-7 M/L): 100%; inhibition at 1 µM (histamine H2 receptors; histamine 1·10^-5 M/L): 50%; inhibition at 1 µM (histamine H2 receptors; histamine 1·10^-6 M/L): 80%; inhibition at 1 µM (histamine H2 receptors; histamine 2,5·10^-7 M/L): 100%; inhibition at 1 µM (histamine H2 receptors; histamine 5·10^-6 M/L): 60%; inhibition at 1 µM (histamine H2 receptors; histamine 5·10^-7 M/L): 90%; inhibition at 0.1 µM (histamine H2 receptors; histamine 1·10^-5 M/L): 20%; inhibition at 0.1 µM (histamine H2 receptors; histamine 1·10^-6 M/L): 65%; inhibition at 0.1 µM (histamine H2 receptors; histamine 2,5·10^-7 M/L): 90%; inhibition at 0.1 µM (histamine H2 receptors; histamine 5·10^-6 M/L): 35%; inhibition at 0.1 µM (histamine H2 receptors; histamine 5·10^-7 M/L): 85%; antagonistic action to the histamine H2 receptors (in words) (histamine H2 receptors): interesting ability; LD50 at 360 h (in vivo): 750 mg/kg; LD50 (in vivo): 1000 mg/kg |
| CN(C)Cc1ccc(CSCCNc2nc(-c3ccccc3)cs2)o1 [Example No. 3, 2-(2-(((5-(dimethylamino)methyl-2-furanyl)methyl)thio)ethyl)-amino-4-phenylthiazole] | 0,07 mEq/4 hours | 4,0 ml/4 hours | 0,10 mEq/4 hours | 4,1 ml/4 hours | 0,12 mEq/4 hours | 4,8 ml/4 hours | 0,15 mEq/4 hours | 5,0 ml/4 hours | -59 | -24 | -33 | -20 | -29 | -14 | -6 | -11 | 2.2 | interesting ability | 95 | 100 | inhibition at 10 µM (histamine H2 receptors; histamine 2,5·10^-7 M/L): 100%; inhibition at 10 µM (histamine H2 receptors; histamine 5·10^-6 M/L): 100%; inhibition at 10 µM (histamine H2 receptors; histamine 5·10^-7 M/L): 100%; inhibition at 1 µM (histamine H2 receptors; histamine 1·10^-5 M/L): 52%; inhibition at 1 µM (histamine H2 receptors; histamine 1·10^-6 M/L): 85%; inhibition at 1 µM (histamine H2 receptors; histamine 2,5·10^-7 M/L): 100%; inhibition at 1 µM (histamine H2 receptors; histamine 5·10^-6 M/L): 70%; inhibition at 1 µM (histamine H2 receptors; histamine 5·10^-7 M/L): 100%; inhibition at 0.1 µM (histamine H2 receptors; histamine 1·10^-5 M/L): 20%; inhibition at 0.1 µM (histamine H2 receptors; histamine 1·10^-6 M/L): 50%; inhibition at 0.1 µM (histamine H2 receptors; histamine 2,5·10^-7 M/L): 85%; inhibition at 0.1 µM (histamine H2 receptors; histamine 5·10^-6 M/L): 30%; inhibition at 0.1 µM (histamine H2 receptors; histamine 5·10^-7 M/L): 70%; antagonistic action to the histamine H2 receptors (in words) (histamine H2 receptors): interesting ability; LD50 at 360 h (in vivo): 550 mg/kg; LD50 (in vivo): 900 mg/kg |
| CN(C)Cc1ccc(CSCCNc2nc(C=Cc3ccccc3)cs2)o1 [Example No. 4, 2-(2-(((5-(dimethylamino)methyl-2-furanyl)methyl)thio)ethyl)amino-4-styryl-thiazole] | 0,09 mEq/4 hours | 3,9 ml/4 hours | 0,08 mEq/4 hours | 4,0 ml/4 hours | 0,14 mEq/4 hours | 4,9 ml/4 hours | 0,14 mEq/4 hours | 5,3 ml/4 hours | -47 | -26 | -47 | -21 | -18 | -13 | -12 | -5 | 3.2 | interesting ability | 93 | 100 | inhibition at 10 µM (histamine H2 receptors; histamine 2,5·10^-7 M/L): 100%; inhibition at 10 µM (histamine H2 receptors; histamine 5·10^-6 M/L): 100%; inhibition at 10 µM (histamine H2 receptors; histamine 5·10^-7 M/L): 100%; inhibition at 1 µM (histamine H2 receptors; histamine 1·10^-5 M/L): 38%; inhibition at 1 µM (histamine H2 receptors; histamine 1·10^-6 M/L): 70%; inhibition at 1 µM (histamine H2 receptors; histamine 2,5·10^-7 M/L): 100%; inhibition at 1 µM (histamine H2 receptors; histamine 5·10^-6 M/L): 60%; inhibition at 1 µM (histamine H2 receptors; histamine 5·10^-7 M/L): 100%; inhibition at 0.1 µM (histamine H2 receptors; histamine 1·10^-5 M/L): 20%; inhibition at 0.1 µM (histamine H2 receptors; histamine 1·10^-6 M/L): 45%; inhibition at 0.1 µM (histamine H2 receptors; histamine 2,5·10^-7 M/L): 90%; inhibition at 0.1 µM (histamine H2 receptors; histamine 5·10^-6 M/L): 35%; inhibition at 0.1 µM (histamine H2 receptors; histamine 5·10^-7 M/L): 70%; antagonistic action to the histamine H2 receptors (in words) (histamine H2 receptors): interesting ability; LD50 at 360 h (in vivo): 2900 mg/kg; LD50 (in vivo): 3000 mg/kg |
| CN(C)Cc1ccc(CSCCNc2nc(-c3ccc(-c4ccccc4)cc3)cs2)o1 [Example No. 5, 2-(2-(((5-(dimethylamino)methyl-2-furanyl)methyl)thio)ethyl)amino-4-(4-biphenyl)-thiazole] | 0,08 mEq/4 hours | 3,7 ml/4 hours | 0,08 mEq/4 hours | 3,8 ml/4 hours | 0,13 mEq/4 hours | 4,9 ml/4 hours | 0,13 mEq/4 hours | 4,4 ml/4 hours | -53 | -30 | -47 | -25 | -23 | -13 | -19 | -21 | 1.6 | interesting ability | 100 | 100 | inhibition at 10 µM (histamine H2 receptors; histamine 2,5·10^-7 M/L): 100%; inhibition at 10 µM (histamine H2 receptors; histamine 5·10^-6 M/L): 100%; inhibition at 10 µM (histamine H2 receptors; histamine 5·10^-7 M/L): 100%; inhibition at 1 µM (histamine H2 receptors; histamine 1·10^-5 M/L): 45%; inhibition at 1 µM (histamine H2 receptors; histamine 1·10^-6 M/L): 70%; inhibition at 1 µM (histamine H2 receptors; histamine 2,5·10^-7 M/L): 100%; inhibition at 1 µM (histamine H2 receptors; histamine 5·10^-6 M/L): 60%; inhibition at 1 µM (histamine H2 receptors; histamine 5·10^-7 M/L): 90%; inhibition at 0.1 µM (histamine H2 receptors; histamine 1·10^-5 M/L): 25%; inhibition at 0.1 µM (histamine H2 receptors; histamine 1·10^-6 M/L): 65%; inhibition at 0.1 µM (histamine H2 receptors; histamine 2,5·10^-7 M/L): 95%; inhibition at 0.1 µM (histamine H2 receptors; histamine 5·10^-6 M/L): 40%; inhibition at 0.1 µM (histamine H2 receptors; histamine 5·10^-7 M/L): 85%; antagonistic action to the histamine H2 receptors (in words) (histamine H2 receptors): interesting ability; LD50 at 360 h (in vivo): 2300 mg/kg; LD50 (in vivo): 3300 mg/kg |

From US4652575A, “2-(ethylene-thio methyl furanyl)amino thiazole derivatives having acid secretion inhibiting activity” (Medosan Industrie Biochimiche Riunite S.p.A., priority 1984, dated 1987)
